According to patent publication US11149040B2, “Fused triazole agonists of the APJ receptor” (AMGEN INC., priority 2017, dated 2021):

Target: human APJ receptor (Homo sapiens (Human), UniProt P35414)
Assay: [35S]GTPγS binding assay on membranes from CHO cells stably expressing human APJ receptor
Format: biochemical
Conditions: read-out: Activity hAPJ SPA EC50 IP
Procedure, shortened: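 Membranes from CHO cells stably expressing FLAG-tagged human APJ; assay buffer GDP, MgCl2 and NaCl levels optimised beforehand. Incubation 90 min at RT, imager read-out. EC50 from non-linear regression on means of several independent experiments.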

human APJ receptor, sequence (P35414 whole entry): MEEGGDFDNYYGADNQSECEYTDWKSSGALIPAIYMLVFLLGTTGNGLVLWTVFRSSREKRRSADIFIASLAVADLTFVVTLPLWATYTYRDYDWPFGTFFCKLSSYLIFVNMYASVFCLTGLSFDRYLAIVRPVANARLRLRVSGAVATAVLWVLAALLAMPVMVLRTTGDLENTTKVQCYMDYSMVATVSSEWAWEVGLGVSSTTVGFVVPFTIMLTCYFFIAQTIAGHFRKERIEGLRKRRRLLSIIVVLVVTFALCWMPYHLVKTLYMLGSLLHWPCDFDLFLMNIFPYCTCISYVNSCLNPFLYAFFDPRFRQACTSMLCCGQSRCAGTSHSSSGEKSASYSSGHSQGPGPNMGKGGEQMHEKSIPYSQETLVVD

Structure (SMILES)	EC50
COC[C@@H]1COc2ccc(OC)nc2-c2nnc(NS(=O)(=O)[C@@H](C)[C@H](C)c3ncc(OC)cn3)n21 (single isomer, unassigned) [Example 7.0, (2S,3R)-N-((5R)-10-methoxy-5-(methoxymethyl)-5,6-dihydropyrido[2,3-f][1,2,4]triazolo[4,3-d][1,4]oxazepin-3-yl)-3-(5-methoxy-2-pyrimidinyl)-2-butanesulfonamide or (2S,3R)-N-((5S)-10-methoxy-5-(methoxymethyl)-5,6-dihydropyrido[2,3-f][1,2,4]traizolo[4,3-d][1,4]oxazepin-3-yl)-3-(5-methoxy-2-pyrimidinyl)-2-butanesulfonamide]	250 nM
CO[C@H](c1ncc(C)cn1)[C@H](C)S(=O)(=O)Nc1nnc2n1[C@H](COC(C)C)COc1ncccc1-2 (single isomer, unassigned) [Example 63.0, (1R,2S)-N-((R)-5-(isopropoxymethyl)-5,6-dihydropyrido[3,2-f][1,2,4]triazolo[4,3-d][1,4]oxazepin-3-yl)-1-methoxy-1-(5-methylpyrimidin-2-yl)propane-2-sulfonamide or (1R,2S)-N-((S)-5-(isopropoxymethyl)-5,6-dihydropyrido[3,2-f][1,2,4]triazolo[4,3-d][1,4]oxazepin-3-yl)-1-methoxy-1-(5-methylpyrimidin-2-yl)propane-2-sulfonamide]	800 nM
COC[C@@H]1COc2ccc(OC)nc2-c2nnc(NS(=O)(=O)[C@@H](C)[C@H](C)c3ncc(C)cn3)n21 (single isomer, unassigned) [Example 12.0, (2S,3R)-N-((5R)-10-methoxy-5-(methoxymethyl)-5,6-dihydropyrido[2,3-f][1,2,4]triazolo[4,3-d][1,4]oxazepin-3-yl)-3-(5-methyl-2-pyrimidinyl)-2-butanesulfonamide or (2S,3R)-N-((5S)-10-methoxy-5-(methoxymethyl)-5,6-dihydropyrido[2,3-f][1,2,4]triazolo[4,3-d][1,4]oxazepin-3-yl)-3-(5-methyl-2-pyrimidinyl)-2-butanesulfonamide]	1200 nM
COC[C@@H]1COc2ccc(F)cc2-c2nnc(NS(=O)(=O)[C@@H](C)[C@H](OC)c3ncc(C)cn3)n21 (single isomer, unassigned) [Example 27.0, (1R,2S)-N-((5R)-10-fluoro-5-(methoxymethyl)-5,6-dihydro[1,2,4]triazolo[4,3-d][1,4]benzoxazepin-3-yl)-1-methoxy-1-(5-methyl-2-pyrimidinyl)-2-propanesulfonamide or (1R,2S)-N-((5S)-10-fluoro-5-(methoxymethyl)-5,6-dihydro[1,2,4]triazolo[4,3-d][1,4]benzoxazepin-3-yl)-1-methoxy-1-(5-methyl-2-pyrimidinyl)-2-propanesulfonamide]	490 nM
COC[C@@H]1COc2ncccc2-c2nnc(NS(=O)(=O)[C@@H](C)[C@@H](OC(C)C)c3ncc(Cl)cn3)n21 (mixture of isomers) [Example 37.0, (1S,2S)-1-(5-chloro-2-pyrimidinyl)-N-((5R)-5-(methoxymethyl)-5,6-dihydropyrido[3,2-f][1,2,4]triazolo[4,3-d][1,4]oxazepin-3-yl)-1-(2-propanyloxy)-2-propanesulfonamide and (1S,2S)-1-(5-chloro-2-pyrimidinyl)-N-((5S)-5-(methoxymethyl)-5,6-dihydropyrido[3,2-f][1,2,4]triazolo[4,3-d][1,4]oxazepin-3-yl)-1-(2-propanyloxy)-2-propanesulfonamide]	30 nM
Cc1cnc([C@H](OC(C)C)[C@H](C)S(=O)(=O)Nc2nnc3n2-c2c(F)cccc2/C=C\C[C@@H]3C)nc1 (single isomer, unassigned) [Example 53.0]	220 nM
COc1ccc2c(c1)-c1nnc(NS(=O)(=O)[C@@H](C)[C@@H](OC(C)C)c3ncc(C)cn3)n1C(CO)CO2 (single isomer, unassigned) [Example 151.0, (1S,2S)-N-((5R)-5-(hydroxymethyl)-10-methoxy-5,6-dihydro[1,2,4]triazolo[4,3-d][1,4]benzoxazepin-3-yl)-1-(5-methyl-2-pyrimidinyl)-1-(2-propanyloxy)-2-propanesulfonamide or (1S,2S)-N-((5S)-5-(hydroxymethyl)-10-methoxy-5,6-dihydro[1,2,4]triazolo[4,3-d][1,4]benzoxazepin-3-yl)-1-(5-methyl-2-pyrimidinyl)-1-(2-propanyloxy)-2-propanesulfonamide]	1270 nM
COC[C@@H]1COc2cc(F)c(F)cc2-c2nnc(NS(=O)(=O)[C@@H](C)[C@@H](OC(C)C)c3ncc(C)cn3)n21 (single isomer, unassigned) [Example 20.0, (1S,2S)-N-((5R)-9,10-difluoro-5-(methoxymethyl)-5,6-dihydro[1,2,4]triazolo[4,3-d][1,4]benzoxazepin-3-yl)-1-(5-methyl-2-pyrimidinyl)-1-(2-propanyloxy)-2-propanesulfonamide or (1S,2S)-N-((5S)-9,10-difluoro-5-(methoxymethyl)-5,6-dihydro[1,2,4]triazolo[4,3-d][1,4]benzoxazepin-3-yl)-1-(5-methyl-2-pyrimidinyl)-1-(2-propanyloxy)-2-propanesulfonamide]	990 nM
COC[C@@H]1COc2ncccc2-c2nnc(NS(=O)(=O)[C@@H](C)[C@@H](OC(C)C)c3ncc(C)cn3)n21 (single isomer, unassigned) [Example 41.0, (1S,2S)-N-((5R)-5-(methoxymethyl)-5,6-dihydropyrido[3,2-f][1,2,4]triazolo[4,3-d][1,4]oxazepin-3-yl)-1-(5-methyl-2-pyrimidinyl)-1-(2-propanyloxy)-2-propanesulfonamide or (1S,2S)-N-((5S)-5-(methoxymethyl)-5,6-dihydropyrido[3,2-f][1,2,4]triazolo[4,3-d][1,4]oxazepin-3-yl)-1-(5-methyl-2-pyrimidinyl)-1-(2-propanyloxy)-2-propanesulfonamide]	44 nM
COC[C@@H]1COc2ncccc2-c2nnc(NS(=O)(=O)[C@@H](C)[C@H](OC(C)C)c3ncc(C)cn3)n21 (mixture of isomers) [Example 59.0, (1R,2S)-N-((5R)-5-(methoxymethyl)-5,6-dihydropyrido[3,2-f][1,2,4]triazolo[4,3-d][1,4]oxazepin-3-yl)-1-(5-methyl-2-pyrimidinyl)-1-(2-propanyloxy)-2-propanesulfonamide and (1R,2S)-N-((5S)-5-(methoxymethyl)-5,6-dihydropyrido[3,2-f][1,2,4]triazolo[4,3-d][1,4]oxazepin-3-yl)-1-(5-methyl-2-pyrimidinyl)-1-(2-propanyloxy)-2-propanesulfonamide]	1200 nM
COC[C@@H]1COc2ccccc2-c2nnc(NS(=O)(=O)[C@@H](C)[C@H](C)c3ncc(OC)cn3)n21 (single isomer, unassigned) [Example 1.0, (2S,3R)-N-((5R)-5-(methoxymethyl)-5,6-dihydro[1,2,4]triazolo[4,3-d][1,4]benzoxazepin-3-yl)-3-(5-methoxy-2-pyrimidinyl)-2-butanesulfonamide or (2S,3R)-N-((5S)-5-(methoxymethyl)-5,6-dihydro[1,2,4]triazolo[4,3-d][1,4]benzoxazepin-3-yl)-3-(5-methoxy-2-pyrimidinyl)-2-butanesulfonamide]	120 nM
